pIC50: −log10 of the molar value.
Legend:
[1] = tested on: K-562 (chronic myelogenous leukemia); assay: MTT anti-proliferative assay, K-562; format: cell-based; details: Homo sapiens, K562, 48 h, 50% growth inhibition
Protocol: (§1) Each in vitro experiment was performed at least in triplicate, and the standard deviation of absorbance was less than 10% of the mean. For the in vitro assays, a stock solution (1% DMSO in the appropriate buffer with the tested compound diluted under sonication) was prepared from which several dilutions were made with the appropriate buffer.
(§2) Human cell lines were obtained from the Institute of Cytology, Russian Academy of Sciences. […] Cellular sensitivities to clofarabine and its lipid derivatives were measured with the MTT assay. Cells were plated in triplicate in 96-well plates (10^5 cells/well for suspended cell cultures and 5 × 10^3 cells/well for monolayer cultures); on the same day (suspended cell cultures) or on the following day (monolayer cultures), compounds were added at the appropriate dilutions. Plates were incubated under standard conditions for 48 h. Thereafter, 10 μL of MTT (Sigma) in phosphate-buffered saline (5 mg/mL) was added. The plates were incubated for an additional 4 h, and 150 μL of dimethyl sulfoxide (DMSO) was added to dissolve the formazan crystals. The optical density was read on a HALO MPR-95 Microplate Reader (Dynamica Scientific Ltd., Australia) at 570 nm. The antiproliferative effects were determined as degrees of inhibition of tumor cells (%).

[2] = tested on: HL-60 (promyelocytic leukemia); assay: MTT anti-proliferative assay, HL-60; format: cell-based, human; details: Homo sapiens, HL-60, 48 h, 50% growth inhibition
Protocol: as §1, §2

[3] = tested on: RPMI 1788 (B lymphocyte, human normal cells); assay: MTT assay on normal cells RPMI 1788; format: cell-based; details: MTT 48 h
Protocol: as §1
Human cell lines were obtained from the Institute of Cytology, Russian Academy of Sciences. The cell lines studied were maintained in RPMI 1640 medium (AppliChem, Darmstadt, Germany) supplemented with 20% (HL-60, RPMI 1788) fetal calf serum (HyClone, Cramlington, UK), in DMEM (A 549) and Eagle’s MEM (AppliChem) (MCF7, HeLa) with 10% fetal calf serum (HyClone). Cells were cultivated at 37 °C in a humidified atmosphere of 5% CO2. Cellular sensitivities to clofarabine and its lipid derivatives were measured with the MTT assay. Cells were plated in triplicate in 96-well plates (10^5 cells/well for suspended cell cultures and 5 × 10^3 cells/well for monolayer cultures); on the same day (suspended cell cultures) or on the following day (monolayer cultures), compounds were added at the appropriate dilutions. Plates were incubated under standard conditions for 48 h. Thereafter, 10 μL of MTT (Sigma) in phosphate-buffered saline (5 mg/mL) was added. The plates were incubated for an additional 4 h, and 150 μL of dimethyl sulfoxide (DMSO) was added to dissolve the formazan crystals. The optical density was read on a HALO MPR-95 Microplate Reader (Dynamica Scientific Ltd., Australia) at 570 nm. The antiproliferative effects were determined as degrees of inhibition of tumor cells (%).

EGFR = biological target: T1, EGFR (Homo sapiens, UniProt P00533); assay: ADP-Glo kinase inhibitory assay, EGFR; format: biochemical; details: for inhibition at 0.01 µM: read-out: % Inhibition at 10 nM, EGFR
T1 construct: purchased Promega
Protocol: (§3) We investigated the kinase selectivity of targeted compounds against eight receptor tyrosine kinases including EGFR (epidermal growth factor receptor), HER-2 and HER4 (human epidermal growth factor receptor), IGF1R (insulin like growth factor 1 receptor), InsR (gene insulin receptor), KDR (kinase insert domain receptor), and PDGFRa and PDGFRb (platelet-derived growth factor receptors). The assay was performed using the Kinase-Glo Plus luminescence kinase assay kit (TK-1+ADP-Glo™, Promega, San Diego, CA, USA). It measures kinase activity by quantitating the amount of ATP remaining in solution following a kinase reaction.
(§4) The assay was performed using a Kinase Selectivity Profiling System (TK-1+ADP-Glo™ Assay and TK-2+ADP-Glo™ Assay, Promega), where the kinase activity was measured by quantifying the amount of ADP produced during a kinase reaction. The assay is performed in two steps; firstly, after the kinase reaction, an equal volume of ADP-Glo™ Reagent is added to terminate the kinase reaction and deplete the remaining ATP. Secondly, the Kinase Detection Reagent is added to simultaneously convert ADP to ATP and allow the newly synthesized ATP to be measured using a luciferase/luciferin reaction. The luminescent signal generated is proportional to the ADP concentration produced and is correlated with kinase activity. Our compounds were diluted with kinase buffer (5% DMSO), and 1 μL of the dilution was added to a 5-μL reaction so that the final concentration of DMSO was 1% in all of reactions. All of the enzymatic reactions were conducted at 23 °C for 60 min. The 5-μL reaction mixture contained 1µL of the compound solution, 2µL of the enzyme solution, and 2 µL of kinase substrate. After the enzymatic reaction, 5 µL of ADP-Glo™ Reagent (Promega, USA) was added to each reaction, and the plate was incubated for 40 min at 23 °C. Then, 10 µL of Kinase Detection Reagent (Promega, USA) was added to each reaction, and the plate was incubated for 30 min at 23 °C. Luminescence signal was measured using an Infinite M 200 plate reader (Tecan, Switzerland).
(§5) Kinase activity assays were performed in duplicate at each concentration. The luminescence data were analyzed using the computer software, Magellan™. The difference between luminescence intensities in the absence of Kinase (Lut) and in the presence of Kinase (Luc) was defined as 100% activity (Lut − Luc).

HER-2 = biological target: T2, HER-2 (Homo sapiens, UniProt P04626); assay: ADP-Glo kinase inhibitory assay, HER-2; format: biochemical; details: for inhibition at 0.01 µM: read-out: % Inhibition at 10 nM, HER-2
T2 construct: purchased Promega
Protocol: as §3, §4, §5

HER-4 = biological target: T3, HER-4 (Homo sapiens, UniProt Q15303); assay: ADP-Glo kinase inhibitory assay, HER-4; format: biochemical; details: for inhibition at 0.01 µM: read-out: % Inhibition at 10 nM, HER-4; for inhibitory activity in relation to HER-4, in words: compared with imatinib
T3 construct: purchased Promega
T3 sequence (Q15303 26-1308): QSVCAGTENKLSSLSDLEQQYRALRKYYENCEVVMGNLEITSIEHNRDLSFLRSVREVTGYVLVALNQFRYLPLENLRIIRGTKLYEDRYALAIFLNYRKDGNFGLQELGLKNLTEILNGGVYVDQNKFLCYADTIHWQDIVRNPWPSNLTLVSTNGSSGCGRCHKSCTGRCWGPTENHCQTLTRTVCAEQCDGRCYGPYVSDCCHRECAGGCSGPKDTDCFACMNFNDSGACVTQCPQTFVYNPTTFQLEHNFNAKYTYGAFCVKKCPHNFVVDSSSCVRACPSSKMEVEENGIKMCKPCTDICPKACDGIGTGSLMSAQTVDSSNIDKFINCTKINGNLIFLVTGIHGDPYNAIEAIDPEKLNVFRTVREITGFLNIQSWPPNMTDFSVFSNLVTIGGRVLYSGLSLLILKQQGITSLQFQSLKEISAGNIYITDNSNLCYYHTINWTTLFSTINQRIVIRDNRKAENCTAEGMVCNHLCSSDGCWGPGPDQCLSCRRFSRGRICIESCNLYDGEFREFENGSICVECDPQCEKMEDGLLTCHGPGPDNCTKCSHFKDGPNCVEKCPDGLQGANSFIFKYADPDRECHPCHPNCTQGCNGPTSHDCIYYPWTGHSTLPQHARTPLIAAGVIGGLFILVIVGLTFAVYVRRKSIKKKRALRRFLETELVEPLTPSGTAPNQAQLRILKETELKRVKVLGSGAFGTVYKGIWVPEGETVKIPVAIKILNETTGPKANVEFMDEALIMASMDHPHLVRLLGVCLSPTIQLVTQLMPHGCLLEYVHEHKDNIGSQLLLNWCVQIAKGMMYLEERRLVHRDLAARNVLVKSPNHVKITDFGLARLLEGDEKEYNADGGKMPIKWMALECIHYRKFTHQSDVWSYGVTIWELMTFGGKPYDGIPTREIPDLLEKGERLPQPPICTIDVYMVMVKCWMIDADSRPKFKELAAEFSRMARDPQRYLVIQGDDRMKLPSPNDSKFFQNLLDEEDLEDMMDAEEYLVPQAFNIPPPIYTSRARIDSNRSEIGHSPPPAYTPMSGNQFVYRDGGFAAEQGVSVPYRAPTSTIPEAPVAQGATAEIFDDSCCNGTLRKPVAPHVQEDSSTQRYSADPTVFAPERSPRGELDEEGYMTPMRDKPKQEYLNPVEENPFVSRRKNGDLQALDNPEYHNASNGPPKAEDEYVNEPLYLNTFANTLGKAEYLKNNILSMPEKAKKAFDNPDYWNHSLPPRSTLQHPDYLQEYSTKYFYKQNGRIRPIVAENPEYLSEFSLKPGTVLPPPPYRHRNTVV
Protocol: as §3, §4, §5

IGF1R = biological target: T4, IGF1R (Homo sapiens, UniProt P08069); assay: ADP-Glo kinase inhibitory assay, IGF1R; format: biochemical; details: for inhibition at 0.01 µM: read-out: % Inhibition at 10 nM, IGF1R
T4 construct: purchased Promega
T4 sequence (P08069 31-1367): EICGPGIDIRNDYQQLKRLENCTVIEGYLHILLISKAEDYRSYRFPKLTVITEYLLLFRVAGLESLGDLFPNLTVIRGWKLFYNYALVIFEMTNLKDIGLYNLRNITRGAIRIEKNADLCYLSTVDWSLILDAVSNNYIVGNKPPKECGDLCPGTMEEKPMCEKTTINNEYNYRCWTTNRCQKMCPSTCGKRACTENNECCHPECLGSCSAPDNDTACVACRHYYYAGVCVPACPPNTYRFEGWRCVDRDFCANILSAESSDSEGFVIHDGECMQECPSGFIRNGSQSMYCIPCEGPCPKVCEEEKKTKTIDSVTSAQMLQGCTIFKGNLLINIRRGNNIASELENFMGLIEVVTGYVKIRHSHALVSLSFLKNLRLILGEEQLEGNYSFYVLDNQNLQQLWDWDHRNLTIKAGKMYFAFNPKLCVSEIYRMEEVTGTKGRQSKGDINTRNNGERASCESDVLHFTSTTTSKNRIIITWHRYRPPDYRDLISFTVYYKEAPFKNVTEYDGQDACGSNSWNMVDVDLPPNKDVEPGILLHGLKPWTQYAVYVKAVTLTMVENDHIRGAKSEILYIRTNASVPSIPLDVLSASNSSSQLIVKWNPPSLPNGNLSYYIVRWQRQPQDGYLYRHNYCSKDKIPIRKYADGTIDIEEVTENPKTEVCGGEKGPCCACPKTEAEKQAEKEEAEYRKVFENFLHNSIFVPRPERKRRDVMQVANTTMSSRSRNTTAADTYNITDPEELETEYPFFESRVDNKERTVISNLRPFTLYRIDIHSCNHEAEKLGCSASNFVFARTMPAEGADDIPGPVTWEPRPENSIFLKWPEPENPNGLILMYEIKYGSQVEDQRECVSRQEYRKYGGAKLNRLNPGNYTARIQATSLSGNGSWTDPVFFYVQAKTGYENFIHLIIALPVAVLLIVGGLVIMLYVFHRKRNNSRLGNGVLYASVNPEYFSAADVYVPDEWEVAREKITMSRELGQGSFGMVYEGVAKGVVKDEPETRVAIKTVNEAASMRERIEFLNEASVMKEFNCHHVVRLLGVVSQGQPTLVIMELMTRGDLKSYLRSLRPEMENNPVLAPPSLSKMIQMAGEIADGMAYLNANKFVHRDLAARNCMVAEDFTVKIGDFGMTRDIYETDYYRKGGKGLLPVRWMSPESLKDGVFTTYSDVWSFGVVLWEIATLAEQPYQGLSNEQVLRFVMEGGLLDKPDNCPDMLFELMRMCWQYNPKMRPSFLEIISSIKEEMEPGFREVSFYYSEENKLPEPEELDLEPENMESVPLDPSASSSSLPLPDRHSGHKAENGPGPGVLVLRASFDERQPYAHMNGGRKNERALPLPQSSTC
Protocol: as §3, §4, §5

InsR = biological target: T5, InsR (Homo sapiens, UniProt P06213); assay: ADP-Glo kinase inhibitory assay, InsR; format: biochemical; details: for selectivity for the gene insulin receptor, in words: panel of eight receptor tyrosine kinases; for inhibition at 0.01 µM: read-out: % Inhibition at 10 nM, InsR
T5 construct: purchased Promega
Protocol: as §3, §4, §5

KDR (VEGFR2) = biological target: T6, KDR (VEGFR2) (Homo sapiens, UniProt P35968); assay: ADP-Glo kinase inhibitory assay, KDR; format: biochemical; details: for inhibition at 0.01 µM: 10 nM
T6 construct: purchased Promega
Protocol: as §3
Vascular endothelial growth factor receptor 2 (VEGFR2), also called kinase insert domain receptor (KDR), is a tyrosine kinase receptor for VEGFs that plays a central role in tumor angiogenesis; therefore, the inhibition of VEGFR2 is a promising therapeutic strategy for inhibiting angiogenesis and tumor growth.
as §4, §5

PDGFRa = biological target: T7, PDGFRa (Homo sapiens, UniProt P16234); assay: ADP-Glo kinase inhibitory assay, PDGFRa; format: biochemical; details: for inhibition at 0.01 µM: read-out: % Inhibition at 10 nM, PDGFRa
T7 construct: purchased Promega
T7 sequence (P16234 24-1089): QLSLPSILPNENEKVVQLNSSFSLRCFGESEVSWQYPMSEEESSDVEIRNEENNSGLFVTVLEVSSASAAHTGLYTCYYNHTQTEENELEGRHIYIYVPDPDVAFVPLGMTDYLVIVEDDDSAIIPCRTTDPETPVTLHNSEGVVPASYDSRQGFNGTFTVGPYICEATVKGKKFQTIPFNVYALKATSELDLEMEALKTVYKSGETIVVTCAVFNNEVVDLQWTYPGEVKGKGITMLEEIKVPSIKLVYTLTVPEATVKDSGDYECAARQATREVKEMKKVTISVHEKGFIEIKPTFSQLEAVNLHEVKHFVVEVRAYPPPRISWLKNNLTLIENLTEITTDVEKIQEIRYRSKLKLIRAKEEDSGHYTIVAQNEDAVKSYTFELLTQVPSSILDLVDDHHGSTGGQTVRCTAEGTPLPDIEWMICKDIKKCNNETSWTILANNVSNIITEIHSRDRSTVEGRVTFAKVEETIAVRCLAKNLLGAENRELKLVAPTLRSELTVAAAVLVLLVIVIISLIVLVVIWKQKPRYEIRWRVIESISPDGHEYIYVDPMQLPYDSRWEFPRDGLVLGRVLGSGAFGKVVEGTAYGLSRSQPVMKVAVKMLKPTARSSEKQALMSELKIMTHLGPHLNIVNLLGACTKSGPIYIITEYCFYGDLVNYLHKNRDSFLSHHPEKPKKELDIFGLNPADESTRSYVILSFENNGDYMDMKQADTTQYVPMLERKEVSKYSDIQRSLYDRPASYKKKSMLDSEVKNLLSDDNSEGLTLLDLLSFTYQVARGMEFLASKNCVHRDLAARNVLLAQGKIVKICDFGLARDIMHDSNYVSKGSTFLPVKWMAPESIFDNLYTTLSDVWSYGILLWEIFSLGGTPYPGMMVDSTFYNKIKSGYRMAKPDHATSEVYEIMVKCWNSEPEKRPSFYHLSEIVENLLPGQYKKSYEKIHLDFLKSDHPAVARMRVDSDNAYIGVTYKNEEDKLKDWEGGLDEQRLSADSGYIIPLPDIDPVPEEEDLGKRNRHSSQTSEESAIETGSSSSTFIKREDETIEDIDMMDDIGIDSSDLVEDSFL
Protocol: as §3, §4, §5

PDGFRb = biological target: T8, PDGFRb (Homo sapiens, UniProt P09619); assay: ADP-Glo kinase inhibitory assay, PDGFRb; format: biochemical; details: for inhibition at 0.01 µM: read-out: % Inhibition at 10 nM, PDGFRb
T8 construct: purchased Promega
T8 sequence (P09619 33-1106): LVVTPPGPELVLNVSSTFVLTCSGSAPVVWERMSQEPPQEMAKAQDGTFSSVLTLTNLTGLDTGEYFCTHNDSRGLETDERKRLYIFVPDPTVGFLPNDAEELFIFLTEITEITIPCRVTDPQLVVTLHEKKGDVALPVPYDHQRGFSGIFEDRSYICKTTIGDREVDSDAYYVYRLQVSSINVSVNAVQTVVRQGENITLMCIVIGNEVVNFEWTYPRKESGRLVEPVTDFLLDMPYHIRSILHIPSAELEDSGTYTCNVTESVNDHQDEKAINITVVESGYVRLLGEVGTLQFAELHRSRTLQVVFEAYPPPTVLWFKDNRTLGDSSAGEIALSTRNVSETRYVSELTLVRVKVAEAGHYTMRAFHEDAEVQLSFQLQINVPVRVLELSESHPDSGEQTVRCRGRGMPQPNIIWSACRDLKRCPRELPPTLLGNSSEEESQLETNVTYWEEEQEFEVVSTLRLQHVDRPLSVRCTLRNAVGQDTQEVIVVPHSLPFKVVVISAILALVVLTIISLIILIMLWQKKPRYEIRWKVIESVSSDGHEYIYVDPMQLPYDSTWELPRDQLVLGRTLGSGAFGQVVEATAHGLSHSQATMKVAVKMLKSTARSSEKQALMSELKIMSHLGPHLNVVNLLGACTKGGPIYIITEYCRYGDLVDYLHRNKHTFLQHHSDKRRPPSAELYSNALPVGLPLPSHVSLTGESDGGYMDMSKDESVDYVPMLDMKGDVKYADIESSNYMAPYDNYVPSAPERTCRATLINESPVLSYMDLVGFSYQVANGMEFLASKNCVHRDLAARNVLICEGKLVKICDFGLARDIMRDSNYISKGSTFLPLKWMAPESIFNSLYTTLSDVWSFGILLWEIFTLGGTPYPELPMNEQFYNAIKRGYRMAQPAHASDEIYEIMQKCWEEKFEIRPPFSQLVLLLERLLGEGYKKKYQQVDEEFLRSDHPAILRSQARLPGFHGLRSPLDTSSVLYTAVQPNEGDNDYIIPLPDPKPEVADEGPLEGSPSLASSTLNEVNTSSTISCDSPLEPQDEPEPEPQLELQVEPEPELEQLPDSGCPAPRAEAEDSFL
Protocol: as §3, §4, §5

Compound | inhibition at 0.01 µM (EGFR) | inhibition at 0.01 µM (HER-2) | inhibition at 0.01 µM (HER-4) | inhibition at 0.01 µM (IGF1R) | inhibition at 0.01 µM (InsR) | inhibition at 0.01 µM (KDR (VEGFR2)) | inhibition at 0.01 µM (PDGFRa) | inhibition at 0.01 µM (PDGFRb) | melting point | inhibitory activity in relation to HER-4, in words (HER-4; 10 nM) | also measured
CCOC(=O)CCC(NC(=O)c1ccc(CNc2cc(-n3cnc(C)c3)cc(C(F)(F)F)c2)cc1)C(=O)OCC (stereo not drawn) [Compound 14, Diethyl(4-(((3-(4-methyl-1H-imidazol-1-yl)-5-(trifluoromethyl)phenyl)amino)methyl)benzoyl)glutamate] | 0% | 0% | 0% | 0% | 23% | 0% | 0% | 0% | 125 to 127 °C |  | pIC50 [1]: 4.30; pIC50 [2]: 4.35; inhibition at 100 µM [3]: 10.4%; selectivity for the gene insulin receptor, in words (InsR; 10 nM): high selectivity
CCOC(=O)CC[C@H](NC(=O)c1ccc(CNc2cc([N+](=O)[O-])ccc2C)cc1)C(=O)OCC [Compound 16, Diethyl (4-(((2-methyl-5-nitrophenyl)amino)methyl)benzoyl)glutamate] |  |  |  |  |  |  |  |  | 127 to 129 °C |  | 
CNC(=O)c1cc(Oc2ccc(NC(=O)c3ccc(CNc4cc([N+](=O)[O-])ccc4C)cc3)cc2)ccn1 [Compound 17, 4-{[(2-Methyl-5-nitrophenyl)amino]methyl}-N-(4-{[2-(methylcarbamoyl)pyridin-4-yl]oxy}phenyl) benzoate] | 0% | 0% | 0% | 0% | 49% | 0% | 0% | 0% | 231 to 233 °C |  | selectivity for the gene insulin receptor, in words (InsR; 10 nM): high selectivity
Cc1ccc([N+](=O)[O-])cc1NCc1ccc(C(=O)Nc2cccc(C(F)(F)F)c2)cc1 [Compound 18, 4-{[(2-Methyl-5-nitrophenyl)amino]methyl}-N-[3-(trifluoromethyl)phenyl]benzamide] | 0% | 14% | 56% | 0% | 0% | 24% | 67% | 13% | 169 to 171 °C | comparable to imatinib | 
COC(=O)c1ccc(N)c(NC(=O)c2ccc(CNc3cc([N+](=O)[O-])ccc3C)cc2)c1 [Compound 19, Methyl 4-amino-3-[(4-{[(2-methy-5-nitrophenyl)amino]methyl}benzoyl)amino]benzoate] |  |  |  |  |  |  |  |  | 208 to 210 °C |  | pIC50 [1]: 4.19; pIC50 [2]: < 4.00; inhibition at 100 µM [3]: 10%
CNC(=O)c1cc(Oc2ccc(NCc3ccc(C(=O)Nc4cccc(C(F)(F)F)c4)cc3)cc2)ccn1 [Compound 20, 4-{[(4-{[2-(Methylcarbamoyl)pyridin-4-yl]oxy}phenyl)amino]methyl}-N-[3-(trifluoromethyl)phenyl]benzamide] | 56% | 0% | 57% | 18% | 0% | 48% | 77% | 28% | 170 to 171 °C | comparable to imatinib | 
Cc1ccc(NC(=O)c2ccc(CN3CCN(C)CC3)cc2)cc1Nc1nccc(-c2cccnc2)n1 [Imatinib, reference compound] | 0% | 0% | 42% | 0% | 36% | 0% | 56% | 75% |  |  | inhibition at 100 µM [3]: 13.4%

The next lines start with results.

inhibition at 0.01 µM (EGFR) | inhibition at 0.01 µM (HER-2) | inhibition at 0.01 µM (HER-4) | inhibition at 0.01 µM (IGF1R) | inhibition at 0.01 µM (InsR) | inhibition at 0.01 µM (KDR (VEGFR2)) | inhibition at 0.01 µM (PDGFRa) | inhibition at 0.01 µM (PDGFRb) | melting point | inhibitory activity in relation to HER-4, in words (HER-4; 10 nM) | Compound | also measured
 |  |  |  |  |  |  |  | 162 to 164 °C |  | CCOC(=O)CC[C@H](NC(=O)c1ccc(CNc2ccc(Oc3ccnc(C(=O)NC)c3)cc2)cc1)C(=O)OCC [Compound 21, Diethyl (4-(((4-((2-(methylcarbamoyl)pyridin-4-yl)oxy)phenyl)amino)methyl)benzoyl)glutamate] | 
24% | 0% | 44% | 0% | 0% | 2% | 0% | 0% | 138 to 141 °C | comparable to imatinib | O=C(Nc1cccc(C(F)(F)F)c1)c1ccc(CNc2nccc(-c3cccnc3)n2)cc1 [Compound 24, 4-({[4-(Pyridin-3-yl)pyrimidin-2-yl]amino}methyl)-N-[3-(trifluoromethyl)phenyl]benzamide] | 
 |  |  |  |  |  |  |  | 175 to 176 °C |  | Cc1ccc([N+](=O)[O-])cc1NC(=O)c1ccc(CNc2nccc(-c3cccnc3)n2)cc1 [Compound 25, 4-({[4-(Pyridin-3-yl)pyrimidin-2-yl]amino}methyl)-N-{[(2-methyl-5-nitrophenyl) benzoate] | 
 |  |  |  |  |  |  |  |  | comparable to imatinib | N-(3-(4-methyl-1H-imidazol-1-yl)-5-(trifluoromethyl)phenyl)-4-(((4-(pyridin-2-yl)pyrimidin-2-yl)amino)methyl)benzamide [Compound 22] | % Inhibition at 10 nM, EGFR (EGFR; 10 nM): 21%; % Inhibition at 10 nM, HER-2 (HER-2; 10 nM): 0%; % Inhibition at 10 nM, HER-4 (HER-4; 10 nM): 49%; % Inhibition at 10 nM, IGF1R (IGF1R; 10 nM): 0%; % Inhibition at 10 nM, InsR (InsR; 10 nM): 0%; % Inhibition at 10 nM, KDR (KDR (VEGFR2)): 28%; % Inhibition at 10 nM, PDGFRa (PDGFRa; 10 nM): 0%; % Inhibition at 10 nM, PDGFRb (PDGFRb; 10 nM): 0%

Source: PMC6804006, “Synthesis, Biological Activities and Docking Studies of Novel 4-(Arylaminomethyl)benzamide Derivatives as Potential Tyrosine Kinase Inhibitors” (Molecules, 2019)
